Source: US6683089B2, “N-allyoxyethyl-1,2,3,4,5,6-hexahydro-2,6-methano-3-benzazocine-10-ols” (Boehringer Ingelheim Pharma GmbH & Co. KG, priority 2002, dated 2004)
Counter-ions that a name gives are not always drawn.

Going from `C=CCO[C@@H](C)CN1CC[C@@]2(C)c3cccc(O)c3C[C@@H]1C2(C)C` (as salt: hydrochloride) to `C/C=C/CO[C@@H](C)CN1CC[C@@]2(C)c3cccc(O)c3C[C@@H]1C2(C)C` (as salt: hydrochloride), the melting point falls from 239 °C to 205 °C.

`C=C(C)CO[C@@H](C)CN1CC[C@@]2(C)c3cccc(O)c3C[C@@H]1C2(C)C` (as salt: hydrochloride) showed a melting point of 240 °C.
